Measurements: paper PMC9007951, “Systematically evaluating DOTATATE and FDG as PET immuno-imaging tracers of cardiovascular inflammation” (Scientific Reports, 2022)
Read-outs that look alike come from different tables or passages of the source.

Test: Timed organ biodistribution of [^64Cu]Cu-DOTATATE by ex vivo gamma counting
Format: in vivo, mice
Conditions: mouse, intravenous, 1.85 MBq, total radioactivity, median (IQR); for tissue uptake at 2 h: 120 min after injection; for tissue uptake at 1 min: 1 min after injection; for tissue uptake at 0.5 h: 30 min after injection; for tissue uptake at 5 min: 5 min after injection; for tissue uptake at 1 h: 60 min after injection; for tissue uptake at 0.25 h: 15 min after injection
Procedure: Wild-type and atherosclerotic animals were injected with approximately 1.85 MBq of [^64Cu]Cu-DOTATATE and euthanized at either 1, 5, 15, 30, 60 or 120 min after injection (Supplementary Fig. S1A) to evaluate the tracer’s biodistribution. After euthanasia, an insulin syringe was used to collect blood samples from the right ventricle. Blood samples were used for the establishment of pharmacokinetics profile. Mice were then perfused with 20 mL of phosphate-buffered saline (PBS) and tissues of interest (heart, aorta, bone marrow, spleen, liver, stomach, bladder, kidneys, intestines, lungs, adrenal gland, muscles and pancreas) were harvested. Tissues were blotted for gamma counting on a Wizard2 2480 automatic gamma counter (Perkin Elmer, Waltham, MA). Values were corrected for decay and normalized to tissue weight to express radioactivity concentration as percentage injected dose per gram (%ID/g). […] To investigate the tracer’s distribution within different blood compartments, after gamma counting, 100 μL of blood were spun down at 2000 g for 15 min at 4 °C. Plasma (supernatant) and cells (pellet) were gamma counted and expressed as percentage of total activity. The remainder of the blood was separated using Lymphoprep density gradient medium (Nycomed Pharma, Zurich, Switzerland) following manufacturer’s instructions. Percentage of activity in mononuclear and polynuclear cells was calculated.

[1] = liver, female C57BL/6 mice, N=3-7, read-out: Tissue radioactivity, liver
[2] = lungs, female Apoe^-/- mice 12 weeks on Western Diet, N=3-8, read-out: Tissue radioactivity, lungs
[3] = lungs, female C57BL/6 mice, N=3-7, read-out: Tissue radioactivity, lungs
[4] = lymph node, female Apoe^-/- mice 12 weeks on Western Diet, N=3-8, read-out: Tissue radioactivity, lymph node
[5] = lymph node, female C57BL/6 mice, N=3-7, read-out: Tissue radioactivity, lymph node
[6] = muscle, female Apoe^-/- mice 12 weeks on Western Diet, N=3-8, read-out: Tissue radioactivity, muscle
[7] = muscle, female C57BL/6 mice, N=3-7, read-out: Tissue radioactivity, muscle
[8] = pancreas, female Apoe^-/- mice 12 weeks on Western Diet, N=3-8, read-out: Tissue radioactivity, pancreas
[9] = pancreas, female C57BL/6 mice, N=3-7, read-out: Tissue radioactivity, pancreas
[10] = small intestine, female Apoe^-/- mice 12 weeks on Western Diet, N=3-8, read-out: Tissue radioactivity, small intestine
[11] = small intestine, female C57BL/6 mice, N=3-7, read-out: Tissue radioactivity, small intestine
[12] = spleen, female Apoe^-/- mice 12 weeks on Western Diet, N=3-8, read-out: Tissue radioactivity, spleen
[13] = spleen, female C57BL/6 mice, N=3-7, read-out: Tissue radioactivity, spleen
[14] = stomach, female Apoe^-/- mice 12 weeks on Western Diet, N=3-8, read-out: Tissue radioactivity, stomach
[15] = stomach, female C57BL/6 mice, N=3-7, read-out: Tissue radioactivity, stomach
[16] = tail, female Apoe^-/- mice 12 weeks on Western Diet, N=3-8, read-out: Tissue radioactivity, tail
[17] = tail, female C57BL/6 mice, N=3-7, read-out: Tissue radioactivity, tail
[18] = thoracic aorta, female Apoe^-/- mice 12 weeks on Western Diet, N=3-8, read-out: Tissue radioactivity, thoracic aorta
[19] = thoracic aorta, female C57BL/6 mice, N=3-7, read-out: Tissue radioactivity, thoracic aorta

Structure (SMILES): C[C@@H](O)[C@H](NC(=O)[C@@H]1CSSC[C@H](NC(=O)[C@@H](Cc2ccccc2)NC(=O)CN2CCN(CC(=O)O)CCN(CC(=O)O)CCN(CC(=O)O)CC2)C(=O)N[C@@H](Cc2ccc(O)cc2)C(=O)N[C@H](Cc2c[nH]c3ccccc23)C(=O)N[C@@H](CCCCN)C(=O)N[C@@H]([C@@H](C)O)C(=O)N1)C(=O)O [[^64Cu]Cu-DOTATATE, metal not drawn]
- tissue uptake at 2 h (liver, female Apoe^-/- mice 12 weeks on Western Diet, N=3-8, read-out: Tissue radioactivity, liver): 6.3 %ID/g
- tissue uptake at 1 min [1]: 10 %ID/g
- tissue uptake at 0.5 h [1]: 6.4 %ID/g
- tissue uptake at 1 min [2]: 2.1 %ID/g
- tissue uptake at 5 min [2]: 2.6 %ID/g
- tissue uptake at 0.5 h [2]: 1.6 %ID/g
- tissue uptake at 1 h [2]: 2.5 %ID/g
- tissue uptake at 2 h [2]: 2.8 %ID/g
- tissue uptake at 5 min [3]: 3.2 %ID/g
- tissue uptake at 0.5 h [3]: 1.3 %ID/g
- tissue uptake at 1 h [3]: 1.1 %ID/g
- tissue uptake at 1 min [4]: 2.6 %ID/g
- tissue uptake at 5 min [4]: 3.2 %ID/g
- tissue uptake at 0.25 h [4]: 3 %ID/g
- tissue uptake at 0.5 h [4]: 2.4 %ID/g
- tissue uptake at 1 h [4]: 2.1 %ID/g
- tissue uptake at 1 min [5]: 3 %ID/g
- tissue uptake at 5 min [5]: 4.7 %ID/g
- tissue uptake at 0.25 h [5]: 3.2 %ID/g
- tissue uptake at 1 h [5]: 1.3 %ID/g
- tissue uptake at 2 h [5]: 0.6 %ID/g
- tissue uptake at 1 min [6]: 1.2 %ID/g
- tissue uptake at 5 min [6]: 1.4 %ID/g
- tissue uptake at 0.25 h [6]: 0.6 %ID/g
- tissue uptake at 0.5 h [6]: 0.7 %ID/g
- tissue uptake at 1 h [6]: 0.4 %ID/g
- tissue uptake at 2 h [6]: 0.3 %ID/g
- tissue uptake at 1 min [7]: 2 %ID/g
- tissue uptake at 5 min [7]: 1.6 %ID/g
- tissue uptake at 0.5 h [7]: 0.5 %ID/g
- tissue uptake at 1 h [7]: 0.3 %ID/g
- tissue uptake at 2 h [7]: 0.3 %ID/g
- tissue uptake at 1 min [8]: 4.7 %ID/g
- tissue uptake at 5 min [8]: 4.1 %ID/g
- tissue uptake at 0.25 h [8]: 3.5 %ID/g
- tissue uptake at 0.5 h [8]: 3.4 %ID/g
- tissue uptake at 1 h [8]: 2.7 %ID/g
- tissue uptake at 2 h [8]: 2.6 %ID/g
- tissue uptake at 1 min [9]: 8.7 %ID/g
- tissue uptake at 5 min [9]: 5.3 %ID/g
- tissue uptake at 0.25 h [9]: 6.1 %ID/g
- tissue uptake at 0.5 h [9]: 5.8 %ID/g
- tissue uptake at 1 h [9]: 4.8 %ID/g
- tissue uptake at 2 h [9]: 2.6 %ID/g
- tissue uptake at 1 min [10]: 1.4 %ID/g
- tissue uptake at 5 min [10]: 1.2 %ID/g
- tissue uptake at 0.5 h [10]: 3.1 %ID/g
- tissue uptake at 2 h [10]: 7.2 %ID/g
- tissue uptake at 1 min [11]: 3 %ID/g
- tissue uptake at 5 min [11]: 2 %ID/g
- tissue uptake at 0.25 h [11]: 1.7 %ID/g
- tissue uptake at 0.5 h [11]: 2.6 %ID/g
- tissue uptake at 1 h [11]: 2.4 %ID/g
- tissue uptake at 1 min [12]: 2 %ID/g
- tissue uptake at 5 min [12]: 1.1 %ID/g
- tissue uptake at 0.25 h [12]: 1.2 %ID/g
- tissue uptake at 0.5 h [12]: 1.1 %ID/g
- tissue uptake at 1 h [12]: 0.8 %ID/g
- tissue uptake at 2 h [12]: 1.2 %ID/g
- tissue uptake at 5 min [13]: 1.5 %ID/g
- tissue uptake at 0.5 h [13]: 0.7 %ID/g
- tissue uptake at 1 h [13]: 0.6 %ID/g
- tissue uptake at 2 h [13]: 0.5 %ID/g
- tissue uptake at 1 min [14]: 2.1 %ID/g
- tissue uptake at 5 min [14]: 2.4 %ID/g
- tissue uptake at 2 h [14]: 5 %ID/g
- tissue uptake at 1 min [15]: 2.3 %ID/g
- tissue uptake at 5 min [15]: 2.4 %ID/g
- tissue uptake at 0.25 h [15]: 5 %ID/g
- tissue uptake at 0.5 h [15]: 7.8 %ID/g
- tissue uptake at 1 h [15]: 8 %ID/g
- tissue uptake at 2 h [15]: 3.2 %ID/g
- tissue uptake at 5 min [16]: 2.5 %ID/g
- tissue uptake at 0.25 h [16]: 2.5 %ID/g
- tissue uptake at 0.5 h [16]: 3.1 %ID/g
- tissue uptake at 1 h [16]: 2 %ID/g
- tissue uptake at 2 h [16]: 2.7 %ID/g
- tissue uptake at 1 min [17]: 3.5 %ID/g
- tissue uptake at 5 min [17]: 2.7 %ID/g
- tissue uptake at 1 h [17]: 1.6 %ID/g
- tissue uptake at 2 h [17]: 0.6 %ID/g
- tissue uptake at 1 min [18]: 2.9 %ID/g
- tissue uptake at 5 min [18]: 2.1 %ID/g
- tissue uptake at 0.25 h [18]: 2 %ID/g
- tissue uptake at 1 h [18]: 2.1 %ID/g
- tissue uptake at 2 h [18]: 2.1 %ID/g
- tissue uptake at 1 min [19]: 3.2 %ID/g
- tissue uptake at 5 min [19]: 3.1 %ID/g
- tissue uptake at 0.25 h [19]: 1.6 %ID/g
- tissue uptake at 0.5 h [19]: 1.3 %ID/g
- tissue uptake at 1 h [19]: 1.2 %ID/g
- tissue uptake at 2 h [19]: 1 %ID/g
